# Measurements from PubChem BioAssay (NCI).
#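 Five concentrations, 48 hours, 96-well plates. GI50 = concentration required for 50% inhibition of growth. TGI marks complete inhibition of growth.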
# How the values were obtained:
# Assay in all cases: DTP human tumour cell line panel, 48 h
# COLO 205 colon = tested on: COLO 205 colon
# CAKI-1 renal = tested on: CAKI-1 renal
# A498 renal = tested on: A498 renal
# RPMI-8226 leukemia = tested on: RPMI-8226 leukemia
# A549 NSCLC = tested on: A549 NSCLC
# UO-31 renal = tested on: UO-31 renal
# SK-MEL-28 melanoma = tested on: SK-MEL-28 melanoma
# SNB-75 CNS = tested on: SNB-75 CNS
# HL-60(TB) leukemia = tested on: HL-60(TB) leukemia
# SF-295 CNS = tested on: SF-295 CNS
# M14 melanoma = tested on: M14 melanoma
# SR leukemia = tested on: SR leukemia
# OVCAR-8 ovarian = tested on: OVCAR-8 ovarian
# SK-OV-3 ovarian = tested on: SK-OV-3 ovarian
# OVCAR-4 ovarian = tested on: OVCAR-4 ovarian
# NCI-H460 lung = tested on: NCI-H460 lung
# SW-620 colon = tested on: SW-620 colon
# K-562 leukemia = tested on: K-562 leukemia
# CCRF-CEM leukemia = tested on: CCRF-CEM leukemia
# RXF 393 renal = tested on: RXF 393 renal
# NCI-H522 lung = tested on: NCI-H522 lung
# MCF7 breast = tested on: MCF7 breast
# HOP-62 NSCLC = tested on: HOP-62 NSCLC
# HCT-15 colon = tested on: HCT-15 colon
# NCI-H226 lung = tested on: NCI-H226 lung
# MOLT-4 leukemia = tested on: MOLT-4 leukemia
# NCI-H23 lung = tested on: NCI-H23 lung
# HCT-116 colon = tested on: HCT-116 colon
compound,measurement,setting,value
CCCCNNC(=O)c1ccc(-c2cccc(F)c2F)cc1,GI50,COLO 205 colon,1.82 µM
same,TGI,COLO 205 colon,5.56 µM
same,GI50,CAKI-1 renal,2.76 µM
same,TGI,CAKI-1 renal,6.02 µM
same,GI50,A498 renal,1.04 µM
same,TGI,A498 renal,2.92 µM
same,GI50,RPMI-8226 leukemia,0.8 µM
same,TGI,RPMI-8226 leukemia,7.88 µM
same,GI50,A549 NSCLC,3.36 µM
same,TGI,A549 NSCLC,18.4 µM
same,GI50,UO-31 renal,1.78 µM
same,TGI,UO-31 renal,7.25 µM
same,GI50,SK-MEL-28 melanoma,2.75 µM
same,TGI,SK-MEL-28 melanoma,63.7 µM
same,GI50,SNB-75 CNS,0.894 µM
same,TGI,SNB-75 CNS,8.29 µM
same,GI50,HL-60(TB) leukemia,1.07 µM
same,TGI,HL-60(TB) leukemia,16.1 µM
same,GI50,SF-295 CNS,2 µM
same,TGI,SF-295 CNS,4.78 µM
same,GI50,M14 melanoma,2.93 µM
same,TGI,M14 melanoma,20.8 µM
same,GI50,SR leukemia,1.77 µM
same,TGI,SR leukemia,57.3 µM
same,GI50,OVCAR-8 ovarian,1.49 µM
same,TGI,OVCAR-8 ovarian,> 100 µM
same,GI50,SK-OV-3 ovarian,4.12 µM
same,TGI,SK-OV-3 ovarian,42.5 µM
same,GI50,OVCAR-4 ovarian,4.03 µM
same,TGI,OVCAR-4 ovarian,> 100 µM
same,GI50,NCI-H460 lung,2.71 µM
same,TGI,NCI-H460 lung,21.3 µM
same,GI50,SW-620 colon,2.92 µM
same,TGI,SW-620 colon,12.5 µM
same,GI50,K-562 leukemia,1.29 µM
same,TGI,K-562 leukemia,> 100 µM
same,GI50,CCRF-CEM leukemia,3.08 µM
same,TGI,CCRF-CEM leukemia,> 100 µM
same,GI50,RXF 393 renal,1.31 µM
same,TGI,RXF 393 renal,3.67 µM
same,GI50,NCI-H522 lung,2.3 µM
same,TGI,NCI-H522 lung,20.7 µM
same,GI50,MCF7 breast,0.776 µM
same,TGI,MCF7 breast,17.5 µM
same,GI50,HOP-62 NSCLC,3.09 µM
same,TGI,HOP-62 NSCLC,> 100 µM
same,GI50,HCT-15 colon,3.08 µM
same,TGI,HCT-15 colon,17 µM
same,GI50,NCI-H226 lung,2.58 µM
same,TGI,NCI-H226 lung,17.1 µM
same,GI50,MOLT-4 leukemia,2.49 µM
same,TGI,MOLT-4 leukemia,> 100 µM
same,GI50,NCI-H23 lung,2.39 µM
same,TGI,NCI-H23 lung,18.2 µM
same,GI50,HCT-116 colon,2.57 µM
